tested on: cattle isolates; test: Test of antibiotic resistance in cattle isolates towards various antibiotics (share of isolates per category); assay type: cell-based, lactic acid bacteria (LAB); conditions: share of the 19 cattle isolates
Source text: The following are examples of types of drugs that would be included in the three categories: Category I: quinolones, vancomycin, dalfopristin/quinupristin, third generation cephalosporins; Category II: ampicillin, first and second generation cephalosporins, erythromycin, trimethoprim/sulfamethoxazole; and Category III: inophores (monensin) and polymixins (Polymixin B and colistin). […] A commercial antimicrobial susceptibility test kit-Etest (AB Biodisk, North America Inc., Piscatway, N.J.) was used to determine the minimum inhibitory concentrations (MIC) of the antibiotics for the isolates selected. Etest strips containing a predefined exponential gradient of a particular antibiotic were applied to agar plates containing Mueller Hinton Agar (Difco) pre-inoculated with an overnight culture of the given bacteria (inoculum of 0.5 McFarland turbidity in 0.85% NaCl). The agar plates with the strips were immediately incubated at 37° C. for 16-20 hours, when bacterial growth became distinctly visible. After incubation, MIC values (μg/ml) were read where the inhibition ellipse (centered along the strip) intersected the scale at the edge of the strip. The susceptibility categorization of organisms towards a specific antibiotic was provided in the Etest antibiotic supplements for each agent and was used to examine the susceptibility of lactic acid bacteria (LAB) isolates. Based on the categorization, MIC for a particular organism was reported as susceptible (S), intermediate (I), or resistant (R). When growth occurred along the entire strip, i.e. no inhibition ellipse was seen, the MIC was reported as greater than (>H) the highest value on the reading scale.

Point of comparison: `C[C@H]1COc2c(N3CCN(C)CC3)c(F)cc3c(=O)c(C(=O)O)cn1c23` [LE, Levofloxacin], “% Intermediate” value 37.0%. Against it:
- CC1(C)S[C@@H]2[C@H](NC(=O)[C@H](N)c3ccccc3)C(=O)N2[C@H]1C(=O)O [AM, Ampicillin] — lower, 0.0%
- CC[C@H]1OC(=O)[C@H](C)[C@@H](O[C@H]2C[C@@](C)(OC)[C@@H](O)[C@H](C)O2)[C@H](C)[C@@H](O[C@@H]2O[C@H](C)C[C@H](N(C)C)[C@H]2O)[C@](C)(O)C[C@@H](C)C(=O)[C@H](C)[C@@H](O)[C@]1(C)O [EM, Erythromycin] — lower, 5.0%
- Cc1c(F)c(N2CCNC(C)C2)cc2c1c(=O)c(C(=O)O)cn2C1CC1 (stereo not shown) [GP, Grepafloxacin] — lower, 10.0%
- CN(C)[C@@H]1C(O)=C(C(N)=O)C(=O)[C@@]2(O)C(O)=C3C(=O)c4c(O)cccc4[C@@](C)(O)[C@H]3C[C@@H]12 [TC, Tetracycline] — lower, 0.0%

Point of comparison: `C[C@H]1COc2c(N3CCN(C)CC3)c(F)cc3c(=O)c(C(=O)O)cn1c23` [LE, Levofloxacin], “% Resistant” value 5.0%. Against it:
- CC1(C)S[C@@H]2[C@H](NC(=O)[C@H](N)c3ccccc3)C(=O)N2[C@H]1C(=O)O [AM, Ampicillin] — higher, 10.0%
- CC[C@H]1OC(=O)[C@H](C)[C@@H](O[C@H]2C[C@@](C)(OC)[C@@H](O)[C@H](C)O2)[C@H](C)[C@@H](O[C@@H]2O[C@H](C)C[C@H](N(C)C)[C@H]2O)[C@](C)(O)C[C@@H](C)C(=O)[C@H](C)[C@@H](O)[C@]1(C)O [EM, Erythromycin] — higher, 21.0%
- Cc1c(F)c(N2CCNC(C)C2)cc2c1c(=O)c(C(=O)O)cn2C1CC1 (stereo not shown) [GP, Grepafloxacin] — higher, 58.0%
- CN(C)[C@@H]1C(O)=C(C(N)=O)C(=O)[C@@]2(O)C(O)=C3C(=O)c4c(O)cccc4[C@@](C)(O)[C@H]3C[C@@H]12 [TC, Tetracycline] — higher, 31.0%

Point of comparison: `CN(C)[C@@H]1C(O)=C(C(N)=O)C(=O)[C@@]2(O)C(O)=C3C(=O)c4c(O)cccc4[C@@](C)(O)[C@H]3C[C@@H]12` [TC, Tetracycline], “% Susceptible” value 69.0%. Against it:
- CC1(C)S[C@@H]2[C@H](NC(=O)[C@H](N)c3ccccc3)C(=O)N2[C@H]1C(=O)O [AM, Ampicillin] — higher, 90.0%
- CC[C@H]1OC(=O)[C@H](C)[C@@H](O[C@H]2C[C@@](C)(OC)[C@@H](O)[C@H](C)O2)[C@H](C)[C@@H](O[C@@H]2O[C@H](C)C[C@H](N(C)C)[C@H]2O)[C@](C)(O)C[C@@H](C)C(=O)[C@H](C)[C@@H](O)[C@]1(C)O [EM, Erythromycin] — higher, 74.0%
- Cc1c(F)c(N2CCNC(C)C2)cc2c1c(=O)c(C(=O)O)cn2C1CC1 (stereo not shown) [GP, Grepafloxacin] — lower, 32.0%
- C[C@H]1COc2c(N3CCN(C)CC3)c(F)cc3c(=O)c(C(=O)O)cn1c23 [LE, Levofloxacin] — lower, 58.0%

same assay, conditions: share of the 19 cattle isolates; listed as grepafloxacin

For `Cc1c(F)c(N2CCNC(C)C2)cc2c1c(=O)c(C(=O)O)cn2C1CC1` (stereo not shown) [GP, Grepafloxacin], the “% Resistant” value was 58%.
